Data published in US20260078103A1, “ISOQUINOLONES AS PI3K INHIBITORS” (OnKure, Inc., priority 2022, published 2026).
Read-outs that look alike come from different tables or passages of the source.

Legend:
Assay type in all cases: cell-based
[1] = tested on: T47D cells expressing mutant PI3Ka (H1047R); assay: In vitro cell proliferation, T47D cells (CellTiter-Glo); conditions: inhibition of proliferation, read-out: Avg T-47D EC50
Protocol: (§1) In Vitro Cell Proliferation: Determination of EC50 Values for Inhibition of Proliferation in T47D Cells Expressing Mutant PI3Ka (H1047R) Mutation and SKBR3 Cells Express WT PI3Ka.
(§2) T47D or SKBR3 cells were trypsinized, resuspended in culture media and seeded onto assay ready plates. T47D culture media consisted of RPMI, 10% FBS and Insulin (0.2 units/mL). SKBR3 culture media consisted of McCoys 5a and 10% FBS. Cells were seeded at a density of 1,500 cells/well and dispensed in 50 μl onto 384 well assay ready plates (Corning, 89089-790). Assay ready plates had previously been stamped with 10-point dilutions of compounds of interest, as well as controls. The Echo655 is used to stamp plates at 40 nL of compound or DMSO. Cells were grown for 72 hours at 37° Celsius and 5% CO2. After 72 hours, cells were equilibrated at room temperature for 15 minutes. 30 μL of CellTiter-Glo reagent is added to the plate, which is then shaken for 30 minutes at temperature at 300-500 rpm. Cells are then read on an Envision plate reader. The percentage of inhibition of proliferation was calculated using the following formula: % Inhibition=100×(LumD−Lumsample)/(LumD−Lumlnh), where D is obtained from cells treated with 0.1% DMSO only; lnh is obtained from cells treated with 10 uM Alpelisib. The effective concentration achieving 50% inhibition of proliferation (EC50) is calculated by fitting the Curve using Xlfit (v5.3.1.3), equation 201: Y=Bottom+(Top−Bottom)/(1+10^((LogEC50−X)*HillSlope)).

[2] = tested on: SKBR3 cells express WT PI3Ka; assay: In vitro cell proliferation, SKBR3 cells (CellTiter-Glo); conditions: inhibition of proliferation
Protocol: as §1, §2

[3] = tested on: phosphorylation of AKT (pAKT) in T47D cells expressing mutant PI3Ka (H1047R); assay: In vitro cell pAKT (Ser473) HTRF, T47D cells; conditions: cellular pAKT, T47D cells, mutant PI3Ka (H1047R), 6 hours, read-out: Avg T-47D IC50
Protocol: (§3) In Vitro Cell pAKT: Determination of IC50 Values for Inhibition of Phosphorylation of AKT (pAKT) in T47D Cells Expressing Mutant PI3Ka (H1047R) Mutation and SKBR3 Cells Express WT PI3Ka.
(§4) T47D or SKBR3 cells were trypsinized, resuspended in culture media and seeded onto assay ready plates. T47D culture media consisted of RPMI, 10% FBS and Insulin (0.2 units/mL). SKBR3 culture media consisted of McCoy's 5a and 10% FBS. Cells were seeded at a density of 5000 cells/well and dispensed in 12.5 μL onto 384 well assay ready plates (Perkin Elmer, 6008238)). Assay ready plates had previously been stamped with 10-point dilutions of compounds of interest, as well as controls. The Echo655 is used to stamp plates at 12.5 nL of compound or DMSO. Cells were grown for 6 hours at 37° Celsius and 5% CO2. After 6 hours, 4 μL of Lysis buffer reagent was added to the plate, which was then centrifuged for 1 minute at 1000 rpm. Then the plate was incubated at room temperature for 30 minutes. After 30 minutes, 4 μL of antibody mix containing Eu Cryptate, d2 Cryptate, and detection buffer, was added to the plate. The plate was centrifuged for 1 minute at 1000 rpm and then incubated overnight at room temperature. The plate was read on an Envision plate reader using the HTRF protocol. The percentage of inhibition of AKT phosphorylation was calculated using the following formula: % Inhibition=100×(pAKTHC−pAKTSample)/(pAKTHC−pAKTLC)), where pAKTHC is obtained from cells treated with 0.1% DMSO only; PAKTLC is obtained from cells treated with 10 uM Alpelisib. The IC50 (concentration achieving 50% inhibition of pAKT) is calculated by fitting the Curve using XIfit (v5.3.1.3), equation 201: Y=Bottom+(Top−Bottom)/(1+10^((LogIC50−X)*HillSlope)).

[4] = tested on: phosphorylation of AKT (pAKT) in SKBR3 cells express WT PI3Ka; assay: In vitro cell pAKT (Ser473) HTRF, SKBR3 cells; conditions: cellular pAKT
Protocol: as §3, §4

EC50 ([1]; Homo sapiens, T47D, 72 h) [nM]	EC50 ([2]; Homo sapiens, SK-BR-3, 72 h) [nM]	IC50 ([3]; Homo sapiens, T47D, 6 h) [nM]	IC50 ([4]; Homo sapiens, SK-BR-3, 6 h) [nM]	EC50 ([1]; 72 hours) [nM]	EC50 ([2]; 72 hours) [nM]	IC50 [3] [nM]	IC50 ([4]; 6 hours) [nM]	SMILES
1 to 500	> 15000	1 to 500	> 15000					Cc1cc([C@@H](C)Nc2ccccc2C(=O)O)c2cc(N3CCn4nc(C)cc4C3)n(C)c(=O)c2c1 [Example 446]
				1 to 500	> 15000	1 to 500	> 15000	Cc1cc(C(C)Nc2ccccc2C(=O)O)c2cc(-c3ccc(C)nc3)n(C)c(=O)c2c1 (single isomer, unassigned) [Example 21, 2-((1-(2,7-dimethyl-3-(6-methylpyridin-3-yl)-1-oxo-1,2-dihydroisoquinolin-5-yl)ethyl)amino)benzoic acid]
				2000 to 15000	2000 to 15000	> 15000	> 15000	Cc1cc(C(C)Nc2ccccc2C(=O)O)c2cc(N3CCC4(CCN(CC(F)(F)F)CC4)CC3)n(C)c(=O)c2c1 (single isomer, unassigned) [Example 110]
1 to 500	> 15000	1 to 500	> 15000					Cc1cc([C@@H](C)Nc2ccccc2C(=O)O)c2cc(-c3cnc(C(F)F)nc3)n(C)c(=O)c2c1 [Example 341]
1 to 500	> 15000	1 to 500	> 15000					Cc1cc([C@@H](C)Nc2ccccc2C(=O)O)c2cc(N3CC(C)(c4ccccc4)C3)n(C)c(=O)c2c1 [Example 179]
				1 to 500	2000 to 15000	1 to 500	2000 to 15000	Cc1cc(C(C)Nc2ccccc2C(=O)O)c2cc(N3CCN(C(=O)OC(C)C)CC3)n(C)c(=O)c2c1 (single isomer, unassigned) [Example 149]
	> 15000		> 15000	2000 to 15000		> 15000		Cc1cc(C(C)Nc2ccccc2C(=O)O)c2cc(N3Cc4ccc(F)c(F)c4C3)n(C)c(=O)c2c1 (single isomer, unassigned) [Example 177]
1 to 500	> 15000	1 to 500	> 15000					Cc1cc([C@@H](C)Nc2cccc(F)c2C(=O)O)c2cc(C3C[C@H]3C)n(C)c(=O)c2c1 (single isomer, unassigned) [Example 355]
1 to 500	> 15000	1 to 500	> 15000					Cc1cc([C@@H](C)Nc2ccccc2C(=O)O)c2cc(-c3cnc(CF)cn3)n(C)c(=O)c2c1 [Example 393]
				1 to 500	2000 to 15000	1 to 500	> 15000	Cc1cc(C(C)Nc2ccccc2C(=O)O)c2cc(N3C[C@H]4CN(CC(F)(F)F)C[C@H]4C3)n(C)c(=O)c2c1 (single isomer, unassigned) [Example 31]
1 to 500	> 15000	1 to 500	> 15000					Cc1cc([C@@H](C)Nc2ccccc2C(=O)O)c2cc(N3CCN(CC4OCCO4)CC3)n(C)c(=O)c2c1 [Example 157]
1 to 500	2000 to 15000	1 to 500	2000 to 15000					Cc1ccc(N2CCN(c3cc4c([C@@H](C)Nc5cccc(F)c5C(=O)O)cc(F)cc4c(=O)n3C)CC2)cn1 [Example 362]
1 to 500	> 15000	1 to 500	> 15000					C[C@@H](Nc1cccc(F)c1C(=O)O)c1cc(F)cc2c(=O)n(C)c(-c3ccc(OC4CC4)nc3)cc12 [Example 379]
1 to 500	> 15000	1 to 500	> 15000					C[C@@H](Nc1ccccc1C(=O)O)c1cc(F)cc2c(=O)n(C)c(C34CC(CC(F)(F)F)(C3)C4)cc12 [Example 570]
1 to 500	2000 to 15000	1 to 500	> 15000					C[C@@H](Nc1ccccc1C(=O)O)c1cc(F)cc2c(=O)n(C)c(-c3cnc(C4(CC(F)(F)F)CC4)nc3)cc12 [Example 579]
1 to 500	2000 to 15000	1 to 500	500 to 2000					Cc1cc([C@@H](C)Nc2ccccc2C(=O)O)c2cc(N3CCN(c4cnc(C)s4)CC3)n(C)c(=O)c2c1 [Example 364]
1 to 500	> 15000	1 to 500	> 15000					Cc1cc([C@@H](C)Nc2ccccc2C(=O)O)c2cc(OCc3ccc(C)nc3)n(C)c(=O)c2c1 [Example 334]
1 to 500	> 15000	1 to 500	> 15000					Cc1cc([C@@H](C)Nc2ccccc2C(=O)O)c2cc(-c3cnc(C(C)C)cn3)n(C)c(=O)c2c1 [Example 516]
2000 to 15000	> 15000	1 to 500	> 15000					Cc1cc(C(C)Nc2ccccc2C(=O)O)c2cc(N3CC4(CC(C(F)(F)F)C4)C3)n(C)c(=O)c2c1 (centres unmarked) [Example 57]
				1 to 500	2000 to 15000	1 to 500	2000 to 15000	Cc1cc([C@@H](C)Nc2ccccc2C(=O)O)c2cc(N3CCN(c4cccc(C#N)c4)CC3)n(C)c(=O)c2c1 [Example 161]
1 to 500	> 15000	1 to 500	2000 to 15000					Cc1cc([C@@H](C)Nc2ccccc2C(=O)O)c2cc(N3CCC4(CN(CC(F)(F)F)C4)C3)n(C)c(=O)c2c1 [Example 185]
1 to 500	> 15000	1 to 500	> 15000					Cc1cc([C@@H](C)Nc2ccccc2C(=O)O)c2cc(C3C[C@H]3C3CC3)n(C)c(=O)c2c1 (some centres unmarked) [Example 303]
				1 to 500	> 15000	1 to 500	2000 to 15000	Cc1ccc(-c2ncc(-c3cc4c(C(C)Nc5ccccc5C(=O)O)cc(F)cc4c(=O)n3C)cc2F)cn1 (centres unmarked) [Example 473]
1 to 500	> 15000	1 to 500	> 15000					Cc1cc([C@@H](C)Nc2ccccc2C(=O)O)c2cc(N3CCN(Cc4ccnc(C)n4)CC3)n(C)c(=O)c2c1 [Example 214]
1 to 500	2000 to 15000	1 to 500	2000 to 15000					Cc1cc([C@@H](C)Nc2ccccc2C(=O)O)c2cc(N3CCN(c4ncccc4C#N)CC3)n(C)c(=O)c2c1 [Example 199]
1 to 500	2000 to 15000	1 to 500	2000 to 15000					Cc1nc(N2CCN(c3cc4c([C@@H](C)Nc5ccccc5C(=O)O)cc(F)cc4c(=O)n3C)CC2)cs1 [Example 491]
	> 15000		> 15000	2000 to 15000		2000 to 15000		Cc1cc(C(C)Nc2ccccc2C(=O)O)c2cc(N3CCS(=O)(=O)CC3)n(C)c(=O)c2c1 (single isomer, unassigned) [Example 150]
	> 15000		> 15000	2000 to 15000		2000 to 15000		C[C@@H](Nc1cccc(F)c1C(=O)O)c1cc(F)cc2c(=O)n(C)c(C3CC3(F)F)cc12 (single isomer, unassigned) [Example 479]
2000 to 15000	> 15000	500 to 2000	> 15000					Cc1cc(C(C)Nc2ccccc2C(=O)O)c2cc(N3Cc4c(F)c(F)c(F)c(F)c4C3)n(C)c(=O)c2c1 (centres unmarked) [Example 89]
